# Experimental data: ChEMBL document CHEMBL1201862, “PubChem BioAssay data set” (2004)
# Calls of active or inactive are those of the source.
# Legend:
# [1] = molecular target: T1, Adenosylmethionine-8-amino-7-oxononanoate aminotransferase (Mycobacterium tuberculosis, UniProt P9WQ81); assay: Mycobacterium tuberculosis BioA enzyme inhibitor Measured in Biochemical System Using Plate Reader - 2163-02_Inhibitor_Dose_CherryPick_Activity.; assay type: functional, Mycobacterium tuberculosis UT205
# T1 sequence (P9WQ81 whole entry): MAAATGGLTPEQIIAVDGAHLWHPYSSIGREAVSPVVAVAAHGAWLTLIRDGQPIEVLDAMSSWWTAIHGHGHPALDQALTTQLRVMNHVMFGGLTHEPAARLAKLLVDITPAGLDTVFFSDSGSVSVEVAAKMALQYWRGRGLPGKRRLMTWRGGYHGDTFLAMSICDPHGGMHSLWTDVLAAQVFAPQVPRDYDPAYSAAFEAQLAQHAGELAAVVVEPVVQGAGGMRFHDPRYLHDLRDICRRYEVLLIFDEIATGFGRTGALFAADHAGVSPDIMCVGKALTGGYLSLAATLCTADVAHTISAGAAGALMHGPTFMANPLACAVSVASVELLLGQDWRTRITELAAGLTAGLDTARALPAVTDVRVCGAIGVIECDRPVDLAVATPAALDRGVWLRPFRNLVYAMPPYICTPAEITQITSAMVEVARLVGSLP
# Cytochrome P450 2C9 = Cytochrome P450 2C9 (Homo sapiens, UniProt P11712)
# Sequence of Cytochrome P450 2C9 (P11712 whole entry): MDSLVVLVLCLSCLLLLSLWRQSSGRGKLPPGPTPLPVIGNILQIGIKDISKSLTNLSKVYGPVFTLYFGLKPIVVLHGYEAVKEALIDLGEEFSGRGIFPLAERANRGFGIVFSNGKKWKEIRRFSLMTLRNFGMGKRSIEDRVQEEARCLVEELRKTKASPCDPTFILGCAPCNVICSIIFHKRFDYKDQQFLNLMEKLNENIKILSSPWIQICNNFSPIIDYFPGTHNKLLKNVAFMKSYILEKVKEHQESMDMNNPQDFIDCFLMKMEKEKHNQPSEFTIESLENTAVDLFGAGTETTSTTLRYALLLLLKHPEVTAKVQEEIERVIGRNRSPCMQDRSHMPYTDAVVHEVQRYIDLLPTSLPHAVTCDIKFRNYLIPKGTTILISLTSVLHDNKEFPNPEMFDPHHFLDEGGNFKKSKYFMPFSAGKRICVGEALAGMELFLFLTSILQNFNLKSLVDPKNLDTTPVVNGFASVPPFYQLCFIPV
# [2] = Luminescence Cell-Based Dose Response HTS to Identify Activators of Luciferase Translation or Activity in H4 […] Cells. [Related pubchem assays: 1829 (Project Summary), 1814 (Primary HTS)]; assay type: functional
# H4 = assay: Luminescence Cell-Based Dose Response HTS to Identify Activators of 5'UTR Stem-Loop Driven Prion Protein mRNA Translation in H4 Neuroglioblastoma Cells. [Related pubchem assays: 1829 (Project Summary), 1814 (Primary HTS)]; assay type: functional; settings: Homo sapiens
# [3] = Luminescence Cell-Based Dose Confirmation HTS to Identify Activators of 5'UTR Stem-Loop Driven Alpha-Synuclein mRNA Translation in H4 Neuroglioblastoma Cells. [Related pubchem assays: 1829 (Project Summary), 1814 (Primary HTS)]; assay type: functional
# P388 = assay: cells; assay type: functional; settings: Mus musculus
# P388/ADR = assay: cells; assay type: functional; settings: Mus musculus
# SN12K1 = assay: cells; assay type: functional; settings: Homo sapiens
SMILES,AC50 [1],GI50 (P388),GI50 (P388/ADR),GI50 (SN12K1),also measured
C#CCSc1nnc(-c2sc(-c3ccccc3)nc2C)n1C,2880 nM (active),,,,AC50 (Cytochrome P450 2C9): 17800 nM (inconclusive); EC50 [2]: 48900 nM (active); EC50 (H4): 16900 nM (active); EC50 [3]: > 120000 nM (not active)
Cc1nc2nc(SCC(=O)NCc3ccco3)nn2c(C)c1Cc1ccccc1,704 nM (active),,,,
CSc1ccc(S(=O)(=O)N2CCC(C(=O)Nc3cccnc3)CC2)cc1,807 nM (active),,,,
Nc1ccn(C2OC(CO)C(O)C2O)c(=O)n1 (stereo not drawn),,50 nM (active),50 nM (active),70 nM (active),
CC(=O)OCc1cc(=O)n(C)c2c3c4c(cc12)c(C)cc(=O)n4CO3,,344 nM (active),531 nM (active),843 nM (active),
CCCCC1(C2c3ccccc3Oc3ccccc32)C(=O)N(c2ccccc2)N(c2ccccc2)C1=O,,9820 nM (inactive),17600 nM (inactive),34800 nM (inactive),
CN1c2ccc(-c3cccc(F)c3)cc2[C@H]2[C@H](CCN2C(=O)C2CCOCC2)[C@H]1CO,108 nM (active),,,,
NCCCNCCSP(=O)(O)O [AMIFOSTINE],,54600 nM (inactive),84300 nM (inactive),> 667000 nM (inactive),
Cn1c(/C=C/CO)c(CO)c2c1C(=O)C=C(N1CC1)C2=O [APAZIQUONE],,940 nM (active),506 nM (active),10.2 nM (active),
